According to PubChem BioAssay AID651974 (The Scripps Research Institute Molecular Screening Center, 2013):
Active and inactive are the calls of the source. The rule behind the calls is not given here.

assay: GAL4-VP16 transactivation reporter inhibitors, late-stage follow-up, counter-screen for LRH-1 inverse agonist project, cell-based, luminescence, dose response (AID 651974); settings: HEK293 cells transfected with Gal4-VP16 and pGL4.31 luciferase reporter

SMILES	IC50
CC(=O)Nc1ccc(NC(=O)CSc2ccc(-c3ccco3)nn2)cc1	> 35.9 µM (inactive)
CC(=O)Nc1ccc(N=c2cc([N+](=O)[O-])cc(Cl)n2O)cc1	> 35.9 µM (inactive)
O=C(Nc1ccccc1)c1oc2ccccc2c1NC(=O)C1CC1	> 35.9 µM (inactive)
COc1ccc(CCNC(=O)CSc2ccc(NC(C)=O)cc2)cc1OC	> 35.9 µM (inactive)
